According to US20030073729A1, “Medicaments for diabetic complication and neuropathy, and uses thereof” (AJINOMOTO CO. INC, priority 2000, published 2003):

Assays:
GK rat [1] = assay: Motor nerve conduction velocity (tail nerve) in GK rats; format: in vivo; conditions: 23 weeks after start of oral administration twice a day, glibenclamide 1 mg/kg, nateglinide 50 mg/kg, control group 48.2±1.3, normal control 55.2±1.8
Protocol: An animal test was conducted on a set of the following four groups, and nateglinide and glibenclamide were each suspended into 0.5% methyl cellulose (MC) to give a solution for administration.
GKrats( :male) as a spontaneous diabetic model and normal Wistar rats ( : male) were introduced at the age of 6 weeks.
From the age of 7 weeks, they were kept under a light control (dark term: 7:00 a.m. to 7:00 p.m.; light term: 7:00 p.m. to next morning 7:00) in a feeding limit condition, in which a feed was given twice a day, each only for 1 hour at an interval of 6 hours (9:00 a.m. to 10:00 a.m., and 3:00 p.m. to 4:00 p.m.).
Everyday from the age of 14 weeks, 0.5% MC, glibenclamide (1 mg/kg) or nateglinide (50 mg/kg) was forcibly administered orally just before each feeding twice a day (at 9:00 a.m. and 3:00 p.m.) at an interval of 6 hours.
Twenty-three weeks after the start of the drug administration (the age of 37 weeks), in order to examine an influence on diabetic complications, the motor nerve conduction velocity was measured according to the method described in Cameronetal., Diabetologia, Vol.39, p.1047-1054 (1996), using a tail nerve.

GK rat [2] = assay: Total cholesterol concentration in blood plasma of GK rats; format: in vivo; conditions: fasted 17 hours, 4, 14 and 23 weeks after start of administration, glibenclamide 1 mg/kg, nateglinide 50 mg/kg twice a day, FIG. 2
Protocol: In the same manners as those in the Example 1, the groups formation for the test animals, the feeding of the animals and the administration of medicinal compounds (drug) to be tested to the animals were performed. At one week before the start of the drug administration (the age of 13 weeks) for the animals, and at four weeks (the age of 18 weeks), fourteen weeks (the age of 28 weeks) and twenty-three weeks (the age of 37 weeks) each after the start of the drug administration, the blood samples were taken from the jugglar vein after fasting (abstinence from food) for 17 hours. The total cholesterol concentration in the blood plasma was measured by means of the cholesterol oxidase test method using the Fuji […] analyzer.

Zucker Fatty rat = assay: Triglyceride concentration in blood plasma after fat emulsion loading, Zucker Fatty rat; format: in vivo; conditions: for area under the curve (AUC) of the triglyceride until four hours after the load: Zucker Fatty rat, fat emulsion load, nateglinide 50 mg/kg or voglibose 0.2 mg/kg orally
Protocol: (§1) Using the postprandial hyper lipemiamodel rats (10rats) thus obtained, in a crossover method, an influence of the drug administered on a triglyceride concentration in blood plasma (a postprandial hyperlipemia- suppressing effect) was examined. That is, nateglinide (50 mg/kg) or voglibose (0.2 mg/kg), an alpha-glucosidase inhibitor as a control was administered orally, just before loading with the fat emulsion, and the blood samples were taken from a tail vein with time by four hours after the administration.
(§2) A triglyceride concentration in the blood plasma was measured by means of the Fuji Drichem analyzer.
The same examinations were also conducted with the use of a Zucker Fatty rat which is another hyperlipidemic animal.
As a result of fractional analysis of lipoprotein by means of anagarose gel electrophoresis, amarked increase of fractions in the origin area and pre β subfractions, which are thought to contain chylomicron, VLDL (very low density lipoprotein) and so on which are said to correlate with an angiopathy and an arteriosclerosis was observed.

GK rats = assay: Triglyceride concentration in blood plasma after fat emulsion loading, GK rats; format: in vivo, rat; conditions: fat emulsion (Intralipos, 2 g/kg) load, crossover, nateglinide 50 mg/kg or voglibose 0.2 mg/kg orally just before loading
Protocol: as §1, §2

[3] = test system: vWF concentration in the serum; assay: vWF concentration in serum of GK rats (ELISA); format: in vivo; conditions: GK rat, 23 weeks after start of administration, nateglinide 50 mg/kg twice a day; relative to normal control group 100; control group 184.8±24.3
Protocol: In the same manners as those in the Example 1, the feeding of the animals for the test animals and the administration of medicinal compounds (drug) to be tested to the animals were performed. At twenty-three (23) weeks after the start of the drug administration (the age of 37 weeks), the blood samples were taken from the postcaval vein. The vWF concentration in the serum was measured by means of the ELISA method using anti-human vWF antibody (made by DAKO Co.).

[4] = test system: Na^+/K^+-ATPase activity in the sciatic nerve; assay: Na+/K+-ATPase activity in sciatic nerve of GK rats; format: in vivo; conditions: GK rat, 23 weeks after start of oral administration, nateglinide 50 mg/kg twice a day; control group 87.6±9.8, normal control 110.5±7.7
Protocol: In the same manners as those in the Example 1, the group formation for the test animals, the feeding of the animals and the administration of medicinal compounds (drug) to be tested to the animals were performed. At twenty-three weeks after the start of the drug administration (the age of 37 weeks), the rats were killed and the sciatic nerves were excised. A Na^+/K^+-ATPase activity in the sciatic nerve was measured based on the method described in Green et al., Journal of Clinical Investigation, vol.72, 1058-1063 (1983).

Row | Structure (SMILES) | motor nerve conduction velocity (GK rat [1]) | total cholesterol concentration in the blood plasma (GK rat [2]) | area under the curve (AUC) of the triglyceride until four hours after the load (Zucker Fatty rat) | increase of lipoprotein fractions in the origin area and pre β subfractions (agarose gel electrophoresis) (Zucker Fatty rat; after fat emulsion load, fractions thought to contain chylomicron, VLDL) | increase of area under the curve (AUC) of the triglyceride during four hours after the loading (GK rats) | vWF concentration in the serum [3] | Na^+/K^+-ATPase activity in the sciatic nerve [4]
1 | COc1ccc(Cl)cc1C(=O)NCCc1ccc(S(=O)(=O)NC(=O)NC2CCCCC2)cc1 [glibenclamide] | 52.3±0.9 m/sec | change in the cholesterol value was not observed |  |  |  |  | 
2 | CC(C)[C@H]1CC[C@H](C(=O)N[C@H](Cc2ccccc2)C(=O)O)CC1 [nateglinide, (−)-N-(trans-4-isopropylcyclohexane-carbonyl)-D-phenylalanine] | 55.9±1.3 m/sec | marked decrease | 15 ± 69 mg·h/dL | suppressed | 81 ± 22 mg·h/dL | 124.5±21.5% | 99.5±7.6 μmol ADP/g/hr
3 | OCC(CO)N[C@H]1C[C@](O)(CO)[C@@H](O)[C@H](O)[C@H]1O [voglibose] |  |  | 501 ± 112 mg·h/dL |  | 164 ± 17 mg·h/dL |  | 
